According to PMC6269737, “Effect of Honokiol on Cytochrome P450 and UDP-Glucuronosyltransferase Enzyme Activities in Human Liver Microsomes” (Molecules, 2013):
Entries after “also recorded” stand apart in the source; their conditions may differ. Like-named read-outs stand apart in the source and are kept apart here.

Experiments:
UGT2B7 = biological target: T1, UGT2B7 (Homo sapiens, UniProt P16662); test: UGT2B7-catalyzed azidothymidine glucuronidation inhibition in pooled human liver microsomes; format: in vitro ADME; conditions: 100 μM azidothymidine, pooled HLM (H161)
T1 sequence (P16662 24-529): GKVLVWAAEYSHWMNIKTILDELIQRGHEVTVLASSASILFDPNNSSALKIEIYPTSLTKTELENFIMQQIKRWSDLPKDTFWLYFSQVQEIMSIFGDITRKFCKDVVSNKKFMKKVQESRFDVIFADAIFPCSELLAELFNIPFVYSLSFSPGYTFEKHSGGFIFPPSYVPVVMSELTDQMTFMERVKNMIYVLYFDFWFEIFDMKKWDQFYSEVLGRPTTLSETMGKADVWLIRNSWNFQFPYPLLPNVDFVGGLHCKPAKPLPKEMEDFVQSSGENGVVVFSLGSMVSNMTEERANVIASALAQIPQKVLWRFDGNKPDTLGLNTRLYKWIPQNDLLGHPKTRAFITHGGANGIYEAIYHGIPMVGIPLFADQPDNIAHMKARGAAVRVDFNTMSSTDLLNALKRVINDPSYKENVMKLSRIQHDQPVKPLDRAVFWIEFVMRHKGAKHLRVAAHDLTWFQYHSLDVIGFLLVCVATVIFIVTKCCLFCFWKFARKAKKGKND
Experimental: The inhibitory potency (IC50 value) of honokiol on UGT1A1-catalyzed 17β-estradiol 3-glucuronidation, UGT1A4-catalyzed trifluoperazine glucuronidation, UGT1A9-catalyzed propofol glucuronidation, and UGT2B7-catalyzed azidothymidine glucuronidation activities was determined in pooled human liver microsomes by LC-MS/MS [48]. […] Reactions were initiated by the addition of UDPGA (final concentration, 5 mM), and incubations were carried out at 37 °C in a shaking water bath for 30 min. Reactions were terminated by adding 100 μL of ice-cold methanol containing an internal standard (500 ng/mL ezetimibe for 17β-estradiol 3-glucuronide and propofol glucuronide; 30 ng/mL meloxicam for trifluoperazine glucuronide and azidothymidine glucuronide). The incubation mixtures were then centrifuged at 13,000 × g for 4 min, followed by dilution of 30 μL of the supernatant with 70 μL of water. An aliquot (5 μL) was injected onto the LC-MS/MS. All incubations were performed in triplicate and the mean values were used. Glucuronides produced from UGT isoform-specific substrates were determined by LC-MS/MS [49].
(§1) The apparent kinetic parameters for inhibitory potential (Ki values) were estimated from the fitted curves using Enzyme Kinetics Ver. 1.1 software (Systat Software Inc.).

CYP1A2 = biological target: T2, CYP1A2 (Homo sapiens, UniProt P05177); test: CYP1A2-catalyzed phenacetin O-deethylation inhibition in pooled human liver microsomes (LC-MS/MS); format: in vitro ADME
T2 sequence (P05177 1-516): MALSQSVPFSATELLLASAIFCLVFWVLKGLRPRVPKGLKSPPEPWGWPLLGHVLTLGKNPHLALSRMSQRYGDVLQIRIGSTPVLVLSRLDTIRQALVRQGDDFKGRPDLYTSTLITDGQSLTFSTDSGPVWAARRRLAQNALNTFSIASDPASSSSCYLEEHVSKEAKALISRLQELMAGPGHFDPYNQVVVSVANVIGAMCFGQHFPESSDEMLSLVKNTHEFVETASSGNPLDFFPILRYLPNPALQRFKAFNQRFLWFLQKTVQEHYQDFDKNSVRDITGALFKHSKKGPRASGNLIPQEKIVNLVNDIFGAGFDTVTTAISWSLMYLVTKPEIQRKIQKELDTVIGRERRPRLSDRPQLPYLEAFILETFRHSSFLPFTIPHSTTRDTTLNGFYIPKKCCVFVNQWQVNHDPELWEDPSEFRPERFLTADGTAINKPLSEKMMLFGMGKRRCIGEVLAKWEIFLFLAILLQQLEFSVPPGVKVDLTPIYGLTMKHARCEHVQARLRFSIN
Experimental: The inhibitory potential (IC50 values) of honokiol on CYP activities was evaluated in pooled human liver microsomes using liquid chromatography-tandem mass spectrometry (LC-MS/MS). […] Honokiol was dissolved in acetonitrile. […] After a 3 min preincubation at 37 °C, the reactions were initiated by addition of an NADP generating system and incubated for 15 min at 37 °C in a shaking water bath. The reaction was then stopped by placement of the tubes on ice and adding 100 μL of ice-cold methanol containing internal standards (^13C2, ^15N-acetaminophen for acetaminophen and N-deethylamodiaquine, and d9-1-hydroxybufuralol for 4-hydroxydiclofenac, 4-hydroxybupropion, 7-hydroxycoumarin, 4-hydroxymephenytoin, 1'-hydroxybufuralol, and 1'-hydroxymidazolam). The incubation mixtures were then centrifuged at 13,000 × g for 4 min. All incubations were performed in triplicate, and average values were used.
The reaction was initiated by the addition of the cocktail containing seven CYP probe substrates and bupropion.
The metabolites formed from the seven CYP cocktail substrates were simultaneously determined according to our previously described LC-MS/MS method with minor modification; the concentration of 4-hydroxybupropion for CYP2B6 activity was quantified separately by LC-MS/MS. A tandem mass spectrometer (TSQ Quantum Access, Thermo Scientific, San Jose, CA, USA) coupled with a Nanospace SI-2 LC system (Tokyo, Japan) was used. The column and autosampler temperatures were 50 °C and 6 °C, respectively. The mass spectrometer was equipped with an electrospray ionization (ESI) source and operated in positive ion mode. The ESI source settings for ionization of the metabolites were as follows: capillary voltage, 4200 V; vaporizer temperature, 350 °C; capillary temperature 330 °C; sheath gas pressure, 35 psi; auxiliary gas pressure, 15 psi. Quantification was performed by selected reaction monitoring (SRM) of [M+H]^+ ions and the related product ions for each metabolite. […] Analytical data were processed using Xcalibur® software (Thermo Scientific).
The incubation mixtures were centrifuged at 13,000 × g for 4 min, and the supernatants were diluted as follows: dilution of 20 μL supernatant with 180 μL of 25% methanol for CYP2C8; dilution of 50 μL supernatant with 50 μL of water for CYP2C9, CYP2C19, CYP2D6, and CYP1A2; and dilution of 20 μL supernatant with 80 μL of water for CYP2B6. Aliquots (5 μL) of the diluted supernatants were then analyzed by LC-MS/MS.
as §1

IC50 (UGT2B7): 36.4 µM | IC50 (CYP1A2; 50 μM phenacetin (cocktail), pooled human liver microsomes (H161), read-out: IC50 (μM) of honokiol, no preincubation): 2.1 µM | Ki (CYP1A2; 10–80 μM phenacetin, pooled HLM (H161)): 1.2 µM | IC50 (CYP1A2; 30 min preincubation in the presence of NADPH, pooled HLM (H161), read-out: IC50 (μM) of honokiol, with preincubation): 4.7 µM
Structure (SMILES): C=CCc1ccc(O)c(-c2ccc(O)c(CC=C)c2)c1 [honokiol, 2-(4-hydroxy-3-prop-2-enyl-phenyl)-4-prop-2-enyl-phenol]
Inhibition mode (CYP1A2; pooled HLM (H161)): noncompetitively; also recorded: noncompetitive
